The MIC is the least concentration at which growth counts as inhibited. A low value points to inhibition by little substance.

Among the data in DBAASP are MIC values, retold here.

In brackets after ≈: the same amount, converted by molar mass. Several values for one entry are separate records, joined by “and”; a condition that tells them apart may be missing. Equal entries are not always repeated.

Test systems include Escherichia coli BL21; Escherichia coli K-12; Escherichia coli DC2; Escherichia coli UB1005; Escherichia coli ML-35p; Escherichia coli 363; Micrococcus luteus; Vibrio anguillarum; Aerococcus viridans; Vibrio harveyi; Bacillus subtilis; Aeromonas hydrophila.
Holding throughout (assay): ≥ marks a high value that may be exact or a test limit, other limits are often not marked, values filed in µg/mL are converted to µM
The subject of test [1] is Listeria monocytogenes KCCM 43155.
Test [2] deals with Salmonella enterica subsp. enterica serovar Typhimurium ATCC 14028.
Test [3] deals with Campylobacter jejuni KCTC 5327.
In test [4] the test system is Listeria monocytogenes KCTC 3710.
For test [5], the system named is Listeria monocytogenes KCCM 40307.
Test [6] has as its system Salmonella typhimurium CCARM 8009.
The subject of test [7] is Salmonella typhimurium CCARM 8013.
The test system of test [8] is Streptococcus suis KCTC 3557.
Test [9] deals with Staphylococcus aureus ATCC 25923.
Test [10] relates to Enterococcus faecalis ATCC 29212.
Test [11] has as its system Bacillus subtilis ATCC 6633.
Test [12] relates to Pseudomonas aeruginosa ATCC 27853.
The subject of test [13] is Pseudomonas aeruginosa PA214.
In test [14] the test system is Corynebacterium xerosis C875.
The test system of test [15] is Pseudomonas aeruginosa PA330.
Test [16] has as its system Escherichia coli ATCC 25922.
The subject of test [17] is Staphylococcus epidermidis C621.
In test [18] the test system is Pseudomonas aeruginosa PAO1.
For test [19], the system named is Xanthomonas axonopodis pv. citri.
Test [20] concerns Staphylococcus aureus ATCC 29313.
For test [21], the system named is Acinetobacter baumannii 7226/16.
Test [22] concerns Staphylococcus aureus ATCC 33591.
Test [23] deals with Staphylococcus aureus 1399/17.
For test [24], the system named is Klebsiella pneumoniae ESBL 344/17.
In test [25] the test system is Escherichia coli ESBL 521/17.
The subject of test [26] is Staphylococcus aureus SG511.
The subject of test [27] is Pseudomonas aeruginosa 522/17.
The test system of test [28] is Staphylococcus haemolyticus.
Test [29] relates to Vibrio harveyi CGMCC 1.1593.

In the case of `CC(C)C[C@H](NC(=O)[C@H](CO)NC(=O)[C@H](CC(C)C)NC(=O)[C@H](CC(C)C)NC(=O)[C@H](CO)NC(=O)CNC(=O)[C@H](Cc1ccccc1)NC(=O)[C@@H](N)Cc1ccccc1)C(=O)NCC(=O)N[C@@H](CO)C(=O)N[C@@H](CCCCN)C(=O)N[C@@H](CC(C)C)C(=O)N[C@@H](CC(C)C)C(=O)N1CCC[C@H]1C(=O)N[C@@H](CO)C(=O)N[C@H](C(=O)N[C@@H](Cc1ccccc1)C(=O)N[C@@H](CCCCN)C(=O)N[C@@H](CC(C)C)C(=O)N[C@@H](Cc1ccccc1)C(=O)N[C@@H](CCC(N)=O)C(=O)N[C@@H](CCCN=C(N)N)C(=O)N[C@@H](CCCCN)C(=O)N[C@@H](CCCCN)C(=O)N[C@@H](CCC(=O)O)C(N)=O)C(C)C` [FFGSLLSLGSKLLPSVFKLFQRKKE], the MIC in test [1] turned out to be 2 µM (≈ 5.74 µg/mL); in [2], 4 µM (≈ 11.5 µg/mL); in test [3] it was 2 µM (≈ 5.74 µg/mL); in [4], 2 µM (≈ 5.74 µg/mL); in test [5], 2 µM (≈ 5.74 µg/mL); in test [6], 4 µM (≈ 11.5 µg/mL). Further, the results for the MIC in test [7] and in [8] were 4 µM (≈ 11.5 µg/mL) and 2 µM (≈ 5.74 µg/mL), respectively.
In the case of `C[C@H](NC(=O)[C@H](C)NC(=O)[C@H](Cc1ccccc1)NC(=O)[C@H](C)NC(=O)[C@H](C)NC(=O)[C@H](Cc1c[nH]c2ccccc12)NC(=O)[C@H](C)NC(=O)[C@H](C)NC(=O)[C@H](Cc1ccccc1)NC(=O)[C@H](C)NC(=O)[C@H](C)NC(=O)[C@H](CCCCN)NC(=O)[C@H](CCCCN)NC(=O)[C@H](CCCCN)NC(=O)[C@H](CCCCN)NC(=O)[C@H](CCCCN)NC(=O)[C@@H](N)CCCCN)C(N)=O` [KKKKKKAAFAAWAAFAA], the MIC in test [9] was over 32 µM; in test [10], over 32 µM; in [11], 8 µM (≈ 14.7 µg/mL); in [12], 16 µM (≈ 29.4 µg/mL); in the test with Escherichia coli BL21 it was 1.6 µM (≈ 2.94 µg/mL); in [13], 3.1 µM (≈ 5.69 µg/mL). Moreover, the MIC in [14] stood at 0.5 µM (≈ 0.918 µg/mL); in test [15] it was 17.7 µM (≈ 32.4 µg/mL); in test [16], 8 µM (≈ 14.7 µg/mL); against Escherichia coli K-12, 1.6 µM (≈ 2.94 µg/mL); in [17], 4 µM (≈ 7.34 µg/mL); in test [18], 12.5 µM (≈ 22.9 µg/mL). The MIC against Escherichia coli DC2 turned out to be 0.5 µM (≈ 0.918 µg/mL); in the test on Escherichia coli UB1005, 1 µM (≈ 1.84 µg/mL).
As to `CC(C)C[C@H](NC(=O)[C@H](C)NC(=O)[C@@H](NC(=O)[C@@H](N)CCCCN)C(C)C)C(=O)NCC(=O)N[C@H](C(=O)N[C@@H](C)C(=O)N[C@@H](CCC(N)=O)C(=O)N[C@@H](CC(N)=O)C(=O)N[C@@H](Cc1ccc(O)cc1)C(=O)N[C@@H](CC(C)C)C(=O)N[C@@H](CC(N)=O)C(=O)N1CCC[C@H]1C(=O)N[C@@H](CCC(N)=O)C(=O)N[C@@H](CCC(N)=O)C(=O)O)C(C)C` [KVALGVAQNYLNPQQ], the MIC is over 156 µM in [12], at least 156 µM in [19], at least 156 µM in [20] and over 156 µM in test [16].
Consider `CC[C@H](C)[C@H](NC(=O)[C@H](CCCN=C(N)N)NC(=O)[C@@H](NC(=O)[C@@H]1CCCN1C(=O)[C@@H]1CCCN1C(=O)[C@H](CCCN=C(N)N)NC(=O)[C@H](CCCN=C(N)N)NC(=O)[C@H](Cc1ccccc1)NC(=O)[C@@H]1CCCN1C(=O)[C@H](CC(C)C)NC(=O)[C@H](CCCN=C(N)N)NC(=O)[C@H](Cc1ccccc1)NC(=O)[C@@H](N)CCCN=C(N)N)[C@@H](C)CC)C(=O)N[C@@H](Cc1cnc[nH]1)C(=O)N1CCC[C@H]1C(=O)N1CCC[C@H]1C(=O)N1CCC[C@H]1C(=O)N[C@@H](Cc1ccccc1)C(=O)N[C@@H](Cc1ccc(O)cc1)C(=O)N1CCC[C@H]1C(=O)N1CCC[C@H]1C(=O)N[C@@H](Cc1ccccc1)C(=O)N[C@@H](CCCN=C(N)N)C(=O)N[C@@H](CCCN=C(N)N)C(=O)N[C@@H](Cc1ccccc1)C(=O)N[C@@H](CC(C)C)C(=O)O` [RFRLPFRRPPIRIHPPPFYPPFRRFL], for which the MIC in [21] was 5.66 µM (≈ 19.1 µg/mL); in test [22] it was at least 32 µM; with Escherichia coli ML-35p, 2 µM (≈ 6.75 µg/mL); in test [23], 11.3 µM (≈ 38.2 µg/mL); in test [24] it was 5.66 µM (≈ 19.1 µg/mL); in [25] it was 4 µM (≈ 13.5 µg/mL). The results for the MIC in [26] and in test [27] were 0.5 µM (≈ 1.69 µg/mL) and at least 32 µM, respectively.
In the case of `CC[C@H](C)[C@@H]1NC(=O)[C@@H]2CSSC[C@H](NC(=O)[C@@H]3CCCN3C(=O)[C@H](CO)NC(=O)[C@H](CCCN=C(N)N)NC1=O)C(=O)N1CCC[C@H]1C(=O)N[C@H](C(=O)N[C@@H](C)C(=O)N[C@@H](CC(N)=O)C(=O)N[C@@H](Cc1ccc(O)cc1)C(=O)NCC(=O)O)CSSC[C@H](NC(=O)CNC(=O)[C@@H]1CCCN1C(=O)[C@H](CCCN=C(N)N)NC(=O)CNC(=O)CNC(=O)[C@H](Cc1ccccc1)NC(=O)[C@H](CCC(N)=O)NC(=O)CNC(=O)CNC(=O)[C@@H](NC(=O)[C@H](Cc1ccccc1)NC(=O)[C@@H]1CCCN1C(=O)[C@H](CCCN=C(N)N)NC(=O)CNC(=O)CNC(=O)[C@H](Cc1ccccc1)NC(=O)[C@@H]1CCCN1C(=O)[C@H](CCCN=C(N)N)NC(=O)CNC(=O)[C@H](Cc1ccc(O)cc1)NC(=O)[C@H](CCCN=C(N)N)NC(=O)[C@H](CCCN=C(N)N)NC(=O)[C@H](CO)NC(=O)[C@@H](NC(=O)[C@H](CCCN=C(N)N)NC(=O)[C@@H]1CCCN1C(=O)[C@@H](N)CO)C(C)C)C(C)C)C(=O)N[C@@H](C(C)C)C(=O)N2` [SPRVSRRYGRPFGGRPFVGGQFGGRPGCVCIRSPCPCANYG], the MIC in the test with Escherichia coli 363 was at least 50 µM; in the test with Micrococcus luteus, 0.78 µM (≈ 3.41 µg/mL); in test [28], 12.5 µM (≈ 54.6 µg/mL); against Vibrio anguillarum it was 6.25 µM (≈ 27.3 µg/mL); in test [29], 5.06 µM (≈ 22.1 µg/mL); against Aerococcus viridans it was 0.39 µM (≈ 1.7 µg/mL). In addition, the MIC was 1.56 µM (≈ 6.82 µg/mL) against Vibrio harveyi; 12.5 µM and 10.1 µM in the test with Bacillus subtilis; at least 50 µM against Aeromonas hydrophila.
